Patent publication US20240208992A1, “MACROCYCLES AS CFTR MODULATORS” (Idorsia Pharmaceuticals Ltd, priority 2021, published 2024)

Biological target: human F508del-CFTR (Homo sapiens, UniProt P13569, DEL508-508)
Test: F508del-CFTR cell surface expression (corrector activity), DiscoveRx ß-galactosidase complementation chemiluminescence assay in recombinant U2OS cell line;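 further: U2OS cells co-expressing ProLink-tagged F508del-CFTR and a membrane-anchored enzyme acceptor, where more surface CFTR restores β-galactosidase activity measured by chemiluminescence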
Conditions: for EC50: EC50, F508del-CFTR cell surface expression; for Emax: U2OS
[1] = U2OS cell line, 16h compound incubation, geomean values
[2] = in relation to the Emax of the corrector lumacaftor (=100%), U2OS cell line, 16h compound incubation, arithmetic mean values
[3] = U2OS cells, 16h compound incubation, geomean of several measurements
[4] = in relation to the Emax of the corrector lumacaftor (=100%), U2OS cells, 16h compound incubation, arithmetic mean
[5] = U2OS cells, 16h compound incubation, geomean values
[6] = in relation to Emax of corrector lumacaftor (=100%), arithmetic mean values

Chain of human F508del-CFTR (P13569 with tags, fused parts or gaps DEL508-508): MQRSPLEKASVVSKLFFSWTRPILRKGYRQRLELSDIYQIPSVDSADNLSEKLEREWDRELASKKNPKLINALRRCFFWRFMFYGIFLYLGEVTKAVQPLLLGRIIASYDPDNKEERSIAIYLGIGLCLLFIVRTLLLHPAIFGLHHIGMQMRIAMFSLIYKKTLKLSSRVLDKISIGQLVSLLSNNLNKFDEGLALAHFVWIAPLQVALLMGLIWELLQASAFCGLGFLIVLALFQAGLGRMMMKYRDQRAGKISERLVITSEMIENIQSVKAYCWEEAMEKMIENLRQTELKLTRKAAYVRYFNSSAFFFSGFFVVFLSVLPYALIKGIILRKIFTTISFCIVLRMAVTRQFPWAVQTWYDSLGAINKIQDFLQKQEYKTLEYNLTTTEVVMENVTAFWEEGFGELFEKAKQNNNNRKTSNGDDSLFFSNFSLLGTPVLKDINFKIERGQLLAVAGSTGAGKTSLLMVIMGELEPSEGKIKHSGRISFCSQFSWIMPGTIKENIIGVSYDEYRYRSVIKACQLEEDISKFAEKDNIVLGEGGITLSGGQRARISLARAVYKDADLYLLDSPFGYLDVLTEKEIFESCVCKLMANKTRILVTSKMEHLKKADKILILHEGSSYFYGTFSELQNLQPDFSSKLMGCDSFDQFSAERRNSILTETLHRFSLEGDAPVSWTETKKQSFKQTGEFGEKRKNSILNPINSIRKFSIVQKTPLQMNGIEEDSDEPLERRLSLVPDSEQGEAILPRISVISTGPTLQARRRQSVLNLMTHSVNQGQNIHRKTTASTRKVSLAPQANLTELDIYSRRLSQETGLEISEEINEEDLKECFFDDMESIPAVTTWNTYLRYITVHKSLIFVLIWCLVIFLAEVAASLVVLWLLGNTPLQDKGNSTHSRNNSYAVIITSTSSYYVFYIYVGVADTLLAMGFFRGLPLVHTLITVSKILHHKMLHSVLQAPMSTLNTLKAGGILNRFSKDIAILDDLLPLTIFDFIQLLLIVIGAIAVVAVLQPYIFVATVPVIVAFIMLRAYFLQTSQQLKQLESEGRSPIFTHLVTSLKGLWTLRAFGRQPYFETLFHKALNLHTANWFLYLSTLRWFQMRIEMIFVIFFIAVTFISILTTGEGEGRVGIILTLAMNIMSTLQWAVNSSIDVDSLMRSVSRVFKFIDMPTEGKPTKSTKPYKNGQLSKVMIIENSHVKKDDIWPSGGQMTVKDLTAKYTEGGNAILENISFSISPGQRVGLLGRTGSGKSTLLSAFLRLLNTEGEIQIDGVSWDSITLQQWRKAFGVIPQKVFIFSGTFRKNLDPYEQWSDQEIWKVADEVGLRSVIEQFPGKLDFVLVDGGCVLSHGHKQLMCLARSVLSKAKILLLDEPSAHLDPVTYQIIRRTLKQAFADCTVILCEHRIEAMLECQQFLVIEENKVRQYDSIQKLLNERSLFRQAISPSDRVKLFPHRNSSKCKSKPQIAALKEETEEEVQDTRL

| SMILES | EC50 [5] | Emax [6] | other results |
| --- | --- | --- | --- |
| COc1cccc(CCNC(=O)[C@@H]2CC(=O)N(C)[C@@H](CC3CCCCC3)C(=O)N(C[C@@H]3CCCCO3)CC(=O)N[C@H](Cc3ccccc3)COc3ccc4ccccc4c3C(=O)N2)c1 (racemic) [Example 294, (3RS,7S,13R)-13-benzyl-7-(cyclohexylmethyl)-N-(3-methoxyphenethyl)-6-methyl-1,5,8,11-tetraoxo-9-(((S)-tetrahydro-2H-pyran-2-yl)methyl)-1,2,3,4,5,6,7,8,9,10,11,12,13,14-tetradecahydronaphtho[1,2-p][1]oxa[4,7,10,14]tetraazacycloheptadecine-3-carboxamide] | – | – | EC50 [1]: 265 nM; Emax [2]: 138% |
| COC1CC(CCN2CC(=O)N[C@H](Cc3ccccc3)COc3ccc4ccccc4c3C(=O)N[C@H](C(=O)NCCc3ccc4c(c3)OCO4)CC(=O)N(C)[C@@H](CC(C)C)C2=O)C1 (stereo partly drawn) [Example 336, (3S,7S,13R)-N-(2-(benzo[d][1,3]dioxol-5-yl)ethyl)-13-benzyl-7-isobutyl-9-(2-(3-methoxycyclobutyl)ethyl)-6-methyl-1,5,8,11-tetraoxo-1,2,3,4,5,6,7,8,9,10,11,12,13,14-tetradecahydronaphtho[1,2-p][1]oxa[4,7,10,14]tetraazacycloheptadecine-3-carboxamide] | – | – | EC50 [1]: 207 nM; Emax [2]: 212% |
| CC(C)C[C@H]1C(=O)N(C)[C@H](C)C(=O)N[C@H](Cc2ccccc2)COc2ccc3ncc(F)cc3c2C(=O)N[C@H](C(=O)NCCc2nc(C3CC3)no2)CC(=O)N1C [Example 800, (3S,7S,10R,13R)-13-benzyl-N-(2-(3-cyclopropyl-1,2,4-oxadiazol-5-yl)ethyl)-20-fluoro-7-isobutyl-6,9,10-trimethyl-1,5,8,11-tetraoxo-1,2,3,4,5,6,7,8,9,10,11,12,13,14-tetradecahydro-[1]oxa[4,7,10,14]tetraazacycloheptadecino[16,17-f]quinoline-3-carboxamide] | – | – | EC50 [3]: 266 nM; Emax [4]: 352% |
| COc1cc(CCNC(=O)[C@@H]2CC(=O)N(C)[C@@H](CC(C)C)C(=O)N(C)[C@@H](CC(F)(F)F)C(=O)N[C@H](Cc3ccccc3)COc3cc(C)nc(OC)c3C(=O)N2)on1 [Example 792, (3R,6S,9S,13S)-3-benzyl-9-isobutyl-16-methoxy-N-(2-(3-methoxyisoxazol-5-yl)ethyl)-7,10,18-trimethyl-5,8,11,15-tetraoxo-6-(2,2,2-trifluoroethyl)-2,3,4,5,6,7,8,9,10,11,12,13,14,15-tetradecahydropyrido[3,4-p][1]oxa[4,7,10,14]tetraazacycloheptadecine-13-carboxamide] | 628 nM | 261% | – |
| CN1C(=O)C[C@@H](C(=O)NCCc2ccc3c(c2)OCO3)NC(=O)c2c(ccc3ccccc23)OC[C@@H](Cc2ccccc2)NC(=O)CN(CC[C@H]2CCCCO2)C(=O)[C@@H]1CC1CCCCC1 (racemic) [Example 289, (3RS,7S,13R)-N-(2-(benzo[d][1,3]dioxol-5-yl)ethyl)-13-benzyl-7-(cyclohexylmethyl)-6-methyl-1,5,8,11-tetraoxo-9-(2-((SR)-tetrahydro-2H-pyran-2-yl)ethyl)-1,2,3,4,5,6,7,8,9,10,11,12,13,14-tetradecahydronaphtho[1,2-p][1]oxa[4,7,10,14]tetraazacycloheptadecine-3-carboxamide] | – | – | EC50 [1]: 186 nM; Emax [2]: 160% |
| COc1cccc(CCNC(=O)[C@@H]2CC(=O)N(C)[C@@H](CC(C)C)C(=O)N3CCOC[C@@H]3C(=O)N[C@H](Cc3ccccc3)COc3cnc4ccccc4c3C(=O)N2)c1 [Example 412, (9S,13S,19aR,22R)-22-benzyl-13-isobutyl-N-(3-methoxyphenethyl)-12-methyl-7,11,14,20-tetraoxo-7,8,9,10,11,12,13,14,16,17,19,19a,20,21,22,23-hexadecahydro-[1,4]oxazino[3′,4′:6,7][1]oxa[4,7,10,14]tetraazacycloheptadecino[17,16-c]quinoline-9-carboxamide] | 377 nM | 291% | – |
| COc1cccc(CCNC(=O)[C@@H]2CC(=O)N(C)[C@@H](CC(C)C)C(=O)N3CC[C@@H](C3)C(=O)N[C@H](Cc3ccccc3)COc3cnc4ccc(F)cc4c3C(=O)N2)c1 [Example 537, (73S,4R,9S,13S)-4-benzyl-16-fluoro-9-isobutyl-N-(3-methoxyphenethyl)-10-methyl-6,8,11,15-tetraoxo-2-oxa-5,10,14-triaza-1(3,4)-quinolina-7(3,1)-pyrrolidinacyclopentadecaphane-13-carboxamide] | 384 nM | 294% | – |
| CC(C)C[C@H]1C(=O)N2CCCC[C@H]2C(=O)N[C@H](Cc2ccccc2)COc2cnc3ccc(F)cc3c2C(=O)N[C@H](C(=O)NCCc2noc(C3CC3)n2)CC(=O)N1C [Example 520, (9S,13S,19aS,22R)-22-benzyl-N-(2-(5-cyclopropyl-1,2,4-oxadiazol-3-yl)ethyl)-5-fluoro-13-isobutyl-12-methyl-7,11,14,20-tetraoxo-7,8,9,10,11,12,13,14,17,18,19,19a,20,21,22,23-hexadecahydro-16H-pyrido[2′,11:6,7][1]oxa[4,7,10,14]tetraazacycloheptadecino[17,16-c]quinoline-9-carboxamide] | 345 nM | 155% | – |
| COc1noc(CCNC(=O)[C@@H]2CC(=O)N(C)[C@@H](CC(C)C)C(=O)N(C)[C@@H](CC(F)(F)F)C(=O)N[C@H](Cc3ccccc3)COc3ccc4ncc(F)cc4c3C(=O)N2)n1 [Example 940, (3S,7S,10S,13R)-13-benzyl-20-fluoro-7-isobutyl-N-(2-(3-methoxy-1,2,4-oxadiazol-5-yl)ethyl)-6,9-dimethyl-1,5,8,11-tetraoxo-10-(2,2,2-trifluoroethyl)-1,2,3,4,5,6,7,8,9,10,11,12,13,14-tetradecahydro-[1]oxa[4,7,10,14]tetraazacycloheptadecino[16,17-f]quinoline-3-carboxamide] | – | – | EC50 [3]: 673 nM; Emax [4]: 298% |
| COc1cc(CCNC(=O)[C@@H]2CC(=O)N(C)[C@@H](CC(C)C)C(=O)N3CCCC[C@@H]3C(=O)N[C@H](Cc3ccccc3)COc3ccc4ncn(C)c4c3C(=O)N2)cc(OC)c1 [Example 328, (8S,12S,18aR,21R)-21-benzyl-N-(3,5-dimethoxyphenethyl)-12-isobutyl-5,11-dimethyl-6,10,13,19-tetraoxo-6,7,8,9,10,11,12,13,16,17,18,18a,19,20,21,22-hexadecahydro-5H,15H-imidazo[4′,5′:5,6]benzo[1,2-p]pyrido[2,1-f][1]oxa[4,7,10,14]tetraazacycloheptadecine-8-carboxamide] | – | – | EC50 [1]: 987 nM; Emax [2]: 228% |

Second part, led by results:

| EC50 [5] | Emax [6] | SMILES | other results |
| --- | --- | --- | --- |
| 706 nM | 200% | COCCC(=O)N1CCN2C(=O)[C@H](CC(C)C)N(C)C(=O)C[C@@H](C(=O)NCCc3cccc(OC)c3)NC(=O)c3c(ccc4ccccc34)OC[C@@H](Cc3ccccc3)NC(=O)[C@H]2C1 [Example 752, (4aR,7R,18S,22S)-7-benzyl-22-isobutyl-N-(3-methoxyphenethyl)-3-(3-methoxypropanoyl)-21-methyl-5,16,20,23-tetraoxo-2,3,4,4a,5,6,7,8,16,17,18,19,20,21,22,23-hexadecahydro-1H-naphtho[1,2-p]pyrazino[2,1-f][1]oxa[4,7,10,14]tetraazacycloheptadecine-18-carboxamide] | – |
| 5050 nM | 138% | Cc1cc(CCNC(=O)[C@@H]2CC(=O)N(C)[C@@H](CC(C)C)C(=O)N3CCNC[C@@H]3C(=O)N[C@H](Cc3ccccc3)COc3cnc4ccccc4c3C(=O)N2)on1 [Example 727, (9S,13S,19aR,22R)-22-benzyl-13-isobutyl-12-methyl-N-(2-(3-methylisoxazol-5-yl)ethyl)-7,11,14,20-tetraoxo-7,8,9,10,11,12,13,14,17,18,19,19a,20,21,22,23-hexadecahydro-16H-pyrazino[2′,1′:6,7][1]oxa[4,7,10,14]tetraazacycloheptadecino[17,16-c]quinoline-9-carboxamide] | – |
| 458 nM | 300% | Cc1cc(CCNC(=O)[C@@H]2CC(=O)N(C)[C@@H](CC3CCCC3)C(=O)N3CCCC[C@@H]3C(=O)N[C@H](Cc3ccccc3)COc3ccc4nc(C)oc4c3C(=O)N2)on1 [Example 436, (8S,12S,18aR,21R)-21-benzyl-12-(cyclopentylmethyl)-4,11-dimethyl-N-(2-(3-methylisoxazol-5-yl)ethyl)-6,10,13,19-tetraoxo-6,7,8,9,10,11,12,13,16,17,18,18a,19,20,21,22-hexadecahydro-15H-oxazolo[4′,5′:5,6]benzo[1,2-p]pyrido[2,1-f][1]oxa[4,7,10,14]tetraazacycloheptadecine-8-carboxamide] | – |
| 752 nM | 295% | CC(C)C[C@H]1C(=O)N(C)C2(CC2)C(=O)N[C@H](Cc2ccccc2)COc2cnc3ccccc3c2C(=O)N[C@H](C(=O)NCCc2cccc(-c3ncccn3)c2)CC(=O)N1C [Example 502, (3′S,7′S,13′R)-13′-benzyl-7′-isobutyl-6′,9′-dimethyl-1′,5′,8′,11′-tetraoxo-N-(3-(pyrimidin-2-yl)phenethyl)-2′,3′,4′,5′,6′,7′,8′,9′,11′,12′,13′,14′-dodecahydro-1′H-spiro[cyclopropane-1,10′-[1]oxa[4,7,10,14]tetraazacycloheptadecino[17,16-c]quinoline]-3′-carboxamide] | – |
| 157 nM | 254% | CC(C)C[C@H]1C(=O)N2CCN(C3CC3)C[C@@H]2C(=O)N[C@H](Cc2ccccc2)COc2cnc3ccccc3c2C(=O)N[C@H](C(=O)NCCc2nc3c(s2)CCC3)CC(=O)N1C [Example 404, (9S,13S,19aR,22R)-22-benzyl-18-cyclopropyl-N-(2-(5,6-dihydro-4H-cyclopenta[d]thiazol-2-yl)ethyl)-13-isobutyl-12-methyl-7,11,14,20-tetraoxo-7,8,9,10,11,12,13,14,17,18,19,19a,20,21,22,23-hexadecahydro-16H-pyrazino[2′,11:6,7][1]oxa[4,7,10,14]tetraazacycloheptadecino[17,16-c]quinoline-9-carboxamide] | – |
